Assay results from ChEMBL document CHEMBL3425485 (J Med Chem, 2015).
Calls of active or inactive are those of the source. No cut-off for these calls is given here.

What was measured:
[1] = Total plasma clearance in iv dosed rat; type: ADME, organism-based
Cytochrome P450 1A1 = target: T1, Cytochrome P450 1A1 (Homo sapiens, UniProt P04798); experiment: Drug metabolism assessed as recombinant CYP1A1 (unknown origin)-mediated compound intrinsic clearance measured per mg of protein; type: ADME; details: recombinant enzyme
T1 sequence (P04798 whole entry): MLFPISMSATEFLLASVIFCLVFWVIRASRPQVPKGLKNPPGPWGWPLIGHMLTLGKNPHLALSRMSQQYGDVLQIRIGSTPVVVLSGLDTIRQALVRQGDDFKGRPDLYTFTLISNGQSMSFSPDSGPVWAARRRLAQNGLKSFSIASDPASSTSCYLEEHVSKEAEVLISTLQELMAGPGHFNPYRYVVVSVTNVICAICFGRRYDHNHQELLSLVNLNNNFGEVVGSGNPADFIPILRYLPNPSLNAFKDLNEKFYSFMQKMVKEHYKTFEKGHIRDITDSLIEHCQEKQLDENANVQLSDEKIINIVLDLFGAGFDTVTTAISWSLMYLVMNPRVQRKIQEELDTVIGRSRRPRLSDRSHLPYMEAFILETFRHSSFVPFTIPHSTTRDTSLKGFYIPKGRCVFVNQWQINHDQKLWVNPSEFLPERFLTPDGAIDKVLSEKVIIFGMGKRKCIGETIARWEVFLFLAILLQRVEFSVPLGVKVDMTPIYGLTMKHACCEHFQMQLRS

HeLa [2] = experiment: Selectivity for BRCA1 shRNA-transfected human HeLa cells over wild type human HeLa cells
[3] = Drug metabolism in rat lung microsomes assessed as compound turnover; type: ADME
[4] = Drug metabolism in rat kidney microsomes assessed as compound turnover; type: ADME
[5] = Intrinsic clearance in human liver microsomes measured per mg of protein
[6] = target: Poly [ADP-ribose] polymerase 1 (Homo sapiens, UniProt P09874)
Sequence of Poly [ADP-ribose] polymerase 1 (P09874 whole entry): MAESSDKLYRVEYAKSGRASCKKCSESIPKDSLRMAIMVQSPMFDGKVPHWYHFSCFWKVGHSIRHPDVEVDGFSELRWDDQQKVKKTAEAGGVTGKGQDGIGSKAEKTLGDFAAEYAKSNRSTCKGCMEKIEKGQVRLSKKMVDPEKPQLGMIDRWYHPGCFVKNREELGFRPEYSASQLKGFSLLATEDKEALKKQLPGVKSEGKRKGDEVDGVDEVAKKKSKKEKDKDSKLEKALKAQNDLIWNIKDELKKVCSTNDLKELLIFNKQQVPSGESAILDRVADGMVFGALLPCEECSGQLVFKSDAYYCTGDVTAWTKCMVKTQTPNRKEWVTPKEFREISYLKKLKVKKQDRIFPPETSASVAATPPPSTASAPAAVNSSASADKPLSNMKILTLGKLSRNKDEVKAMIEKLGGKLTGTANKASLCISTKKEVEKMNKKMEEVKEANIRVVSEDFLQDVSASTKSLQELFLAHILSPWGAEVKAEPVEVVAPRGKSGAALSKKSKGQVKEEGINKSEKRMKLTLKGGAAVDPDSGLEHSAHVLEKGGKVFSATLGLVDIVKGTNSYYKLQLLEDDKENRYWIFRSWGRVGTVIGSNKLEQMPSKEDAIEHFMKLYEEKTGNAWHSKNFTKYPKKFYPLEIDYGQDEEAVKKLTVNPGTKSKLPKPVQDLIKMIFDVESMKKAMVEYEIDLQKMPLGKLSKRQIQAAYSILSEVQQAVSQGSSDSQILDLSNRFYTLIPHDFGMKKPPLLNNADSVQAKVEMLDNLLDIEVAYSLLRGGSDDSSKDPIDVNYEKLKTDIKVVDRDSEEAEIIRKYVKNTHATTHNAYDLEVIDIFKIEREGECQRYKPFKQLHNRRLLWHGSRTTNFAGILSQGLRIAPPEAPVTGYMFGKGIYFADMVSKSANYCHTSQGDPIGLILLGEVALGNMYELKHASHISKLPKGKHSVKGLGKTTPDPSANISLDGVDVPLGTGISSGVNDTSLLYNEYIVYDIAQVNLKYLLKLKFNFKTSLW
Description: Inhibition of PARP1 (unknown origin)

[7] = Plasma clearance in rat; type: ADME
Rattus norvegicus = species: Rattus norvegicus; experiment: Terminal half life in rat; type: ADME, organism-based; details: in vivo
HeLa [8] = experiment: Cytotoxicity against human HeLa cells transfected with BRCA1 shRNA assessed as reduction of cell viability after 5 to 7 days by CellTiter-Blue assay; type: functional
[9] = Volume of distribution at steady state in rat; details: in vivo
[10] = Oral bioavailability in dog; details: in vivo
[11] = Volume of distribution at steady state in dog; details: in vivo
[12] = Terminal half life in dog; details: in vivo
[13] = Drug metabolism in iv dosed bile cannulated dog assessed as parent compound recovery
[14] = Drug metabolism in iv dosed bile cannulated rat assessed as parent compound recovery
[15] = Cytotoxicity against human SUM1315MO2 cells carrying BRCA1 mutant assessed as inhibition of cell proliferation after 12 days by CellTiter-Blue assay; details: SUM1315MO2, 288 h
[16] = Plasma concentration in CD-1 mouse at 50 mg/kg, po after 24 hrs
[17] = Fraction unbound in mouse plasma
[18] = Fraction unbound in human plasma
[19] = Antitumor activity against BRCA2-deficient human Capan1 cells xenografted in immunocompromised mouse assessed as tumor growth inhibition at 80 mg/kg, po qd for 2 to 4 weeks; details: CAPAN-1, po, read-out: TGI
Plasma [20] = experiment: Plasma trough concentration in human at 300 mg/day; details: read-out: Cmin
Plasma [21] = experiment: Plasma trough concentration in human at 40 mg/day; details: read-out: Cmin
[22] = target: T2, PARP 1, 2 and 3 (Homo sapiens) (UniProt P09874+Q9Y6F1+Q9UGN5); details: HeLa
Description: Inhibition of PARP in human HeLa cells assessed as inhibition of hydrogen peroxide-induced PARylation by cell-based assay

[23] = target: T2, PARP 1, 2 and 3 (Homo sapiens); details: A2780
Description: Inhibition of PARP in human A2780 cells assessed as inhibition of hydrogen peroxide-induced PARylation by cell-based assay

[24] = target: T2, PARP 1, 2 and 3 (Homo sapiens); details: CAPAN-1
Description: Inhibition of PARP in BRCA2-deficient human CAPAN-1 cells assessed as inhibition of hydrogen peroxide-induced PARylation by cell-based assay

MDA-MB-436 [25] = details: Homo sapiens, 50 mg/kg
Description: Antitumor activity against human MDA-MB-436 cells harboring BRCA1 mutant xenografted in immunocompromised mouse assessed as tumor growth inhibition at 50 mg/kg, po administered daily

MDA-MB-436 [26] = details: Homo sapiens, 80 mg/kg
Description: Antitumor activity against human MDA-MB-436 cells harboring BRCA1 mutant xenografted in immunocompromised mouse assessed as tumor growth inhibition at 80 mg/kg, po qd for 1 to 2 weeks

[27] = target: T2, PARP 1, 2 and 3 (Homo sapiens); details: MDA-MB-436, 50 to 100 mg/kg
Description: Inhibition of PARP activity in tumor of immunocompromised mouse xenografted with human MDA-MB-436 cells harboring BRCA1 mutant assessed as incorporation of [3H]NAD in PAR chains in response to nicked DNA at 50 to 100 mg/kg, po measured after 24 hrs

[28] = target: T2, PARP 1, 2 and 3 (Homo sapiens); details: CAPAN-1, 50 to 100 mg/kg
Description: Inhibition of PARP activity in tumor of immunocompromised mouse xenografted with BRCA2-deficient human Capan1 cells assessed as incorporation of [3H]NAD in PAR chains in response to nicked DNA at 50 to 100 mg/kg, po measured after 24 hrs

HeLa [29] = experiment: cells; details: Homo sapiens
Description: Cytotoxicity against wild type human HeLa cells assessed as inhibition of cell proliferation after 5 to 7 days by CellTiter-Blue assay

A549 [30] = experiment: cells; details: Homo sapiens
Description: Cytotoxicity against wild type human A549 cells assessed as inhibition of cell proliferation after 5 to 7 days by CellTiter-Blue assay

A549 [31] = experiment: cells; details: Homo sapiens; remark: listed apart in the source
Description: Cytotoxicity against human A549 cells transfected with BRCA2 shRNA assessed as inhibition of cell proliferation after 5 to 7 days by CellTiter-Blue assay

cells [32] = details: Homo sapiens, UWB1289
Description: Cytotoxicity against human UWB1.289 cells carrying BRCA1 mutant assessed as inhibition of cell proliferation after 5 to 7 days by CellTiter-Blue assay

cells [33] = details: Homo sapiens, SUM149PT
Description: Cytotoxicity against human SUM149PT cells carrying BRCA1 mutant assessed as inhibition of cell proliferation after 5 to 7 days by CellTiter-Blue assay

DoTc2-4510 = experiment: cells; details: Homo sapiens
Description: Cytotoxicity against human DoTc2-4510 cells carrying BRCA2 mutant assessed as inhibition of cell proliferation after 5 to 7 days by CellTiter-Blue assay

in vivo = details: dog, plasma
in vitro [34] = details: human, UWB1.289 cells expressing BRCA1
Description: Cytotoxicity against human UWB1.289 cells expressing BRCA1 assessed as inhibition of cell proliferation after 5 to 7 days by CellTiter-Blue assay

in vitro [35] = details: human, BT20 cells
Description: Cytotoxicity against human BT20 cells assessed as inhibition of cell proliferation after 5 to 7 days by CellTiter-Blue assay

Work on `CNC(C)(C)c1ccc(-n2cc3cccc(C(N)=O)c3n2)cc1` yielded a clearance [1] of 30 mL/min/kg and a CL (Cytochrome P450 1A1) of 0.4 µL/min.
For `CN(C)Cc1ccc(-n2cc3cccc(C(N)=O)c3n2)cc1`, the Selectivity ratio (HeLa [2]) was >10, the Drug metabolism [3] was “metabolite_detected” and the Drug metabolism [4] was “metabolite_detected”. For the same compound, the CL (Cytochrome P450 1A1) was 8.7 µL/min.
With `NC(=O)c1cccc2cn(-c3ccc([C@H]4CCCNC4)cc3)nc12` the CL (Cytochrome P450 1A1) was 7 µL/min and the microsomal CLint [5] was 4 µL/min/mg.
Compound `NC(=O)c1cccc2cn(-c3ccc4c(c3)CCNC4)nc12` has a clearance [1] of 30 mL/min/kg and a CL (Cytochrome P450 1A1) of 0.7 µL/min.
`NC(=O)c1cccc2cn(-c3ccc(C4CCCN4)cc3)nc12` (stereo not drawn) showed a CL (Cytochrome P450 1A1) of 22 µL/min.
With `NC(=O)c1cccc2cn(-c3ccc(C4CCCNC4)cc3)nc12` (stereo not drawn) the CL (Cytochrome P450 1A1) was 11 µL/min.
In the case of `O=C(O)c1cccc2cn(-c3ccc([C@@H]4CCCNC4)cc3)nc12`, the IC50 [6] is reported as 3.8 nM.
In the case of `NC(=O)c1cccc2cn(-c3ccccc3)nc12`, the clearance [7] is reported as 30 mL/min/kg.
In the case of `CNCc1ccc(-n2cc3cccc(C(N)=O)c3n2)cc1`, the CL (Cytochrome P450 1A1) is reported as 6 µL/min.
For `NC(=O)c1cccc2cn(-c3ccc([C@@H]4CCCNC4)cc3)nc12` [NIRAPARIB], the “beta t1/2” value (Rattus norvegicus) was 3.4 h, the CC50 (HeLa [8]) was 34 nM and the CL (Cytochrome P450 1A1) was 16 µL/min. For the same compound, the microsomal CLint [5] was 3 µL/min/mg, the Vd [9] was 6.9 L/kg and the bioavailability [10] was 57%. The Vd [11] was 12.3 L/kg, the half-life [12] was 5.7 h and the dose excreted [13] was < 5%. It also gave a dose excreted [14] of 45%, a CC50 [15] of 20 nM and a concentration at 24 h [16] of 100 nM. The fraction unbound [17] was 0.26, the fraction unbound [18] was 0.16 and the inhibition in vivo at 80 mg/kg [19] was 60%. For the same compound, the concentration (Plasma [20]) was > 2000 nM, the concentration (Plasma [21]) was 288 nM and the IC90 [22] was 46 nM. For the same compound, the IC90 [23] was 52 nM, the IC90 [24] was 50 nM and the inhibition (MDA-MB-436 [25]) was “Active”. For the same compound, the TGI (MDA-MB-436 [26]) was “Active”, the inhibition [27] was > 90% and the inhibition [28] was > 90%. For the same compound, the CC50 (HeLa [29]) was 852 nM, the CC50 (A549 [30]) was 1760 nM and the CC50 (A549 [31]) was 11 nM. It also gave a CC50 (cells [32]) of 56 nM, a CC50 (cells [33]) of 24 nM and a CC50 (DoTc2-4510) of 23 nM. It also gave a clearance (in vivo) of 31 mL/min/kg, a CC50 (in vitro [34]) of 975 nM and a CC50 (in vitro [35]) of 2200 nM.
